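Following 48 hours of exposure in 96-well plates, responses at five concentrations were used to interpolate endpoints linearly. GI50 marks 50% less growth.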 Active and inactive are the calls of the source. Rule as the data show it: active = GI50 up to about 1.1 µM and inactive = higher.
What was measured:
Assay in all cases: NCI-60 cell line screen, 48 h
Hs-578T = system: Hs-578T
SW-620 = system: SW-620
786-0 = system: 786-0
MDA-MB-435 = system: MDA-MB-435
RPMI-8226 = system: RPMI-8226
NCI-H522 = system: NCI-H522
HOP-62 = system: HOP-62
SK-MEL-2 = system: SK-MEL-2
U-251 = system: U-251
SR = system: SR
SNB-75 = system: SNB-75
IGROV-1 = system: IGROV-1
NCI-H226 = system: NCI-H226
MDA-MB-231 = system: MDA-MB-231
SK-OV-3 = system: SK-OV-3
COLO 205 = system: COLO 205
UACC-62 = system: UACC-62
M14 = system: M14
UACC-257 = system: UACC-257
HCT-15 = system: HCT-15
OVCAR-4 = system: OVCAR-4
RXF 393 = system: RXF 393
HT-29 = system: HT-29
DU-145 = system: DU-145
SK-MEL-5 = system: SK-MEL-5
MDA-N = system: MDA-N
HOP-92 = system: HOP-92
NCI/ADR-RES = system: NCI/ADR-RES
T47D = system: T47D
LOX IMVI = system: LOX IMVI
NCI-H460 = system: NCI-H460
Malme-3M = system: Malme-3M
UO-31 = system: UO-31
SF-268 = system: SF-268
SF-539 = system: SF-539
NCI-H23 = system: NCI-H23
OVCAR-8 = system: OVCAR-8
K562 = system: K562
MCF7 = system: MCF7
CCRF-CEM = system: CCRF-CEM
OVCAR-5 = system: OVCAR-5
SK-MEL-28 = system: SK-MEL-28
ACHN = system: ACHN
MOLT-4 = system: MOLT-4
TK-10 = system: TK-10
PC-3 = system: PC-3
HCC 2998 = system: HCC 2998
BT-549 = system: BT-549
A549 = system: A549
SF-295 = system: SF-295
SN12C = system: SN12C
A498 = system: A498
KM12 = system: KM12
SNB-19 = system: SNB-19
HCT-116 = system: HCT-116
CAKI-1 = system: CAKI-1
HL-60 = system: HL-60
EKVX = system: EKVX
OVCAR-3 = system: OVCAR-3

Cc1nc2ccccc2n1CCc1nc2ccccc2[nH]1
GI50 (Hs-578T): > 100 µM (inactive) | GI50 (SW-620): > 100 µM (inactive) | GI50 (786-0): > 100 µM (inactive) | GI50 (MDA-MB-435): > 100 µM (inactive) | GI50 (RPMI-8226): > 100 µM (inactive) | GI50 (NCI-H522): > 100 µM (inactive) | GI50 (HOP-62): > 100 µM (inactive) | GI50 (SK-MEL-2): > 100 µM (inactive) | GI50 (U-251): > 100 µM (inactive) | GI50 (SR): > 100 µM (inactive) | GI50 (SNB-75): > 100 µM (inactive) | GI50 (IGROV-1): > 100 µM (inactive) | GI50 (NCI-H226): 31.6 µM (inactive) | GI50 (MDA-MB-231): > 100 µM (inactive) | GI50 (SK-OV-3): > 100 µM (inactive) | GI50 (COLO 205): > 100 µM (inactive) | GI50 (UACC-62): > 100 µM (inactive) | GI50 (M14): > 100 µM (inactive) | GI50 (UACC-257): > 100 µM (inactive) | GI50 (HCT-15): > 100 µM | GI50 (OVCAR-4): > 100 µM (inactive) | GI50 (RXF 393): > 100 µM (inactive) | GI50 (HT-29): > 100 µM (inactive) | GI50 (DU-145): > 100 µM (inactive) | GI50 (SK-MEL-5): > 100 µM (inactive) | GI50 (MDA-N): > 100 µM (inactive) | GI50 (HOP-92): > 100 µM (inactive) | GI50 (NCI/ADR-RES): > 100 µM (inactive) | GI50 (T47D): > 100 µM (inactive) | GI50 (LOX IMVI): > 100 µM (inactive) | GI50 (NCI-H460): > 100 µM (inactive) | GI50 (Malme-3M): > 100 µM (inactive) | GI50 (UO-31): > 100 µM (inactive) | GI50 (SF-268): > 100 µM (inactive) | GI50 (SF-539): > 100 µM (inactive) | GI50 (NCI-H23): > 100 µM (inactive) | GI50 (OVCAR-8): > 100 µM (inactive) | GI50 (K562): > 100 µM (inactive) | GI50 (MCF7): > 100 µM (inactive) | GI50 (CCRF-CEM): > 100 µM (inactive) | GI50 (OVCAR-5): > 100 µM (inactive) | GI50 (SK-MEL-28): > 100 µM (inactive) | GI50 (ACHN): > 100 µM (inactive) | GI50 (MOLT-4): > 100 µM (inactive) | GI50 (TK-10): > 100 µM (inactive) | GI50 (PC-3): > 100 µM (inactive) | GI50 (HCC 2998): > 100 µM (inactive) | GI50 (BT-549): > 100 µM (inactive) | GI50 (A549): > 100 µM (inactive) | GI50 (SF-295): > 100 µM (inactive) | GI50 (SN12C): > 100 µM (inactive) | GI50 (A498): > 100 µM (inactive) | GI50 (KM12): > 100 µM (inactive) | GI50 (SNB-19): > 100 µM (inactive) | GI50 (HCT-116): > 100 µM (inactive) | GI50 (CAKI-1): > 100 µM (inactive) | GI50 (HL-60): > 100 µM (inactive) | GI50 (EKVX): > 100 µM (inactive) | GI50 (OVCAR-3): > 100 µM (inactive)
